According to US6410558B1, “Fungicides for the control of take-all disease of plants” (Monsanto Technology LLC, priority 1991, dated 2002):

System: Gaeumannomyces graminis var. tritici (Ggt)
Assay: In vitro Assay: mycelial growth of Ggt on minimal media agar plates containing test compound
Type: cell-based
Conditions: dark, 19-20° C., 4 to 5 days, diameter of mycelial growth; for inhibition at 0.1 ppm / inhibition at 1 ppm / inhibition at 10 ppm: Gaeumannomyces graminis; for inhibition at 0.1 ppm: read-out: In vitro (ppm) 0.1, Percent Inhibition; for inhibition at 1 ppm: read-out: In vitro (ppm) 1, Percent Inhibition; for inhibition at 10 ppm: read-out: In vitro (ppm) 10, Percent Inhibition
Method: The test compounds (0.25 mL of an appropriate stock solution in acetone) are incorporated into 25 mL minimal media agar [(prepared by autoclaving a solution of 17.5 g Czapek Dox broth (Difco), 7.5 g purified agar or Bacto-agar (Difco), and 500 mL distilled/deionized water, and then adding 50 μL of 1 mg/mL thiamine hydrochloride and 50 μL of 1 mg/mL biotin in 5% ethanol] and plates are prepared.
Each plate is inoculated by placing in a triangular shape three 4-mm plugs of Gaeumannomyces graminis var. tritici (Ggt) grown on the minimal media agar described above. The plates are incubated in the dark at 19-20° C. for 4 to 5 days. The growth of the fungus is measured as the diameter of the mycelial growth. The result is expressed as Percent Inhibition, calculated as [1-[(mm growth on treated plate −4)/(mm growth on control plate −4)]]×100.

| SMILES | inhibition at 0.1 ppm (0.1 ppm in minimal media agar) | inhibition at 1 ppm (1 ppm in minimal media agar) | inhibition at 10 ppm (10 ppm in minimal media agar) | In vitro (ppm) 0.1, Percent Inhibition (0.1 ppm in minimal media agar) | In vitro (ppm) 1, Percent Inhibition (1 ppm in minimal media agar) | In vitro (ppm) 10, Percent Inhibition (10 ppm in minimal media agar) |
| --- | --- | --- | --- | --- | --- | --- |
| CCNC(=O)c1c([Si](C)(C)C)ccc(-c2ccccc2)c1Cl [Example 242, 2-Chloro-N-ethyl-3-phenyl-6-(trimethylsilyl)benzamide] | 27% | < 0% | 67% | – | – | – |
| CC(C)N(O)C(=O)c1sc(Cl)cc1[Si](C)(C)C [Example 287, 5-Chloro-N-hydroxy-N-(1-methylethyl)-3-(trimethylsilyl)-2-thiophenecarboxamide] | 64% | 71% | 78% | – | – | – |
| C[Si](C)(C)c1cc(Cl)sc1C(=O)NCCCl [Example 264, 5-Chloro-N-(2-chloroethyl)-3-(trimethylsilyl)-2-thiophenecarboxamide] | 2% | 88% | 100% | – | – | – |
| CCNC(=O)c1c(F)cccc1S(=O)(=O)C(C)(C)C [Example 280, 2-[(1,1-Dimethylethyl)sulfonyl]-N-ethyl-6-fluorobenzamide] | 24% | 21% | 38% | – | – | – |
| CN(C)NC(=O)c1c([Si](C)(C)C)ccc(Cl)c1Cl [Example 205, 2,3-Dichloro-6-(trimethylsilyl)benzoic acid, 2,2-dimethylhydrazide] | 5% | 47% | 81% | – | – | – |
| CC1CCCC(C)N1C(=O)c1c(Cl)cccc1[Si](C)(C)C (stereo not drawn) [Example 131, N-[2-Chloro-6-(trimethylsilyl)benzoyl]-2,6-dimethylpiperidine] | < 0% | 6% | 3% | – | – | – |
| C[Si](C)(C)c1cccc(Cl)c1C(=O)Nc1ccccc1C1CCCC1 [Example 158, 2-Chloro-N-(2-cyclopentylphenyl)-6-(trimethylsilyl)benzamide] | 2% | 33% | 44% | – | – | – |
| C[Si](C)(C)c1cccc(I)c1C(=O)NC1CC1 [Example 209, N-Cyclopropyl-2-iodo-6-(trimethylsilyl)benzamide] | 28% | 90% | 100% | – | – | – |
| C[Si](C)(C)c1cccc(Cl)c1C(=O)NC(c1ccccc1)n1nnc2ccccc21 (stereo not drawn) [Example 170, N-(1H-Benzotriazol-1-ylphenylmethyl)-2-chloro-6-(trimethylsilyl)benzamide] | 12% | 9% | 63% | – | – | – |
| C[Si](C)(C)c1cccc(Cl)c1C(=O)NCc1ccc(C(F)(F)F)cc1 [Example 102, 2-Chloro-N-[[4-(trifluoromethyl)phenyl]-methyl]-6-(trimethylsilyl)-benzamide] | 28% | 52% | 28% | – | – | – |
| CCNC(=O)n1cccc1[Si](C)(C)C [Example 178, N-Ethyl-2-(trimethylsilyl)-1H-pyrrole-1-carboxamide] | < 0% | 15% | 54% | – | – | – |
| Cc1ccccc1NC(=O)c1c(Br)cccc1[Si](C)(C)C [Example 120, 2-Bromo-N-(2-methylphenyl)-6-(trimethylsilyl)benzamide] | < 0% | 26% | 100% | – | – | – |
| CCCSC(=O)c1c(Cl)cccc1[Si](C)(C)C [Example 79, 2-Chloro-6-(trimethylsilyl)-benzenecarbothioic acid, S-propyl ester] | 12% | 12% | 65% | – | – | – |
| C[Si](C)(C)c1cccc(Cl)c1C(=O)NCc1ccccn1 [Example 135, 2-Chloro-N-(2-pyridinylmethyl)-6-(trimethylsilyl)benzamide] | 22% | 17% | 39% | – | – | – |
| C#CCNC(=O)c1c(Cl)cccc1[Si](C)(C)C [Example 108, 2-Chloro-N-(2-propynyl)-6-(trimethylsilyl)benzamide] | 90% | 86% | 97% | – | – | – |
| C[Si](C)(C)c1cccc(Cl)c1C(=O)N1CC=CCC1 [Example 148, 1-[2-Chloro-6-(trimethylsilyl)benzoyl]-1,2,3,6-(tetrahydro)pyridine] | – | – | – | N (If the calculation resulted in “0” or less, as compared to the untreated control, a “N” is shown to indicate no control.) | N (If the calculation resulted in “0” or less, as compared to the untreated control, a “N” is shown to indicate no control.) | 53% |
| CC1C=CC(C)N1C(=O)c1c(Cl)cccc1[Si](C)(C)C (stereo not drawn) [Example 149, 1-[2-Chloro-6-(trimethylsilyl)benzoyl)-2,5-dihydro-2,5-dimethyl-1H-pyrrole] | < 0% | < 0% | 80% | – | – | – |

| SMILES | inhibition at 0.1 ppm (0.1 ppm in minimal media agar) | inhibition at 1 ppm (1 ppm in minimal media agar) | inhibition at 10 ppm (10 ppm in minimal media agar) | In vitro (ppm) 0.1, Percent Inhibition (0.1 ppm in minimal media agar) | In vitro (ppm) 1, Percent Inhibition (1 ppm in minimal media agar) | In vitro (ppm) 10, Percent Inhibition (10 ppm in minimal media agar) |
| --- | --- | --- | --- | --- | --- | --- |
| CCNC(=O)c1c([Si](C)(C)C)ccc(C(C)=O)c1Cl [Example 243, 3-Acetyl-2-chloro-N-ethyl-6-(trimethylsilyl)benzamide] | 23% | 10% | 83% | – | – | – |
| CCNC(=O)c1sc(SC)cc1[Si](C)(C)C [Example 261, N-Ethyl-5-(methylthio)-3-(trimethylsilyl)-2-thiophenecarboxamide] | 14% | 25% | 78% | – | – | – |
| CCN(CC)C(=O)c1ccc(C)c(F)c1[Si](C)(C)C [Example 57, N,N-Diethyl-3-fluoro-4-methyl-2-(trimethylsilyl)benzamide] | 10% | < 0% | 90% | – | – | – |
| CCN(CC)C(=O)c1sccc1[Si](C)(C)C [Example 255, N,N-Diethyl-3-(trimethylsilyl)-2-thiophenecarboxamide] | < 0% | < 0% | 73% | – | – | – |
| CCc1ccc([Si](C)(C)C)c(C(=O)N(CC)CC)c1Cl [Example 85, N,N-Diethyl-2-chloro-3-ethyl-6-(trimethylsilyl)benzamide] | 7% | 7% | 59% | – | – | – |
| CCOCCN(CC)C(=O)c1c(Cl)cccc1[Si](C)(C)C [Example 128, 2-Chloro-N-(2-ethoxyethyl)-N-ethyl-6-(trimethylsilyl)benzamide] | 4% | 8% | 50% | – | – | – |
| CCNC(=O)c1c([Si](C)(C)C)ccc(C)c1Cl [Example 230, 2-Chloro-N-ethyl-3-methyl-6-(trimethylsilyl)benzamide] | 88% | 96% | 96% | – | – | – |
| CN(Cc1ccc(C(C)(C)C)cc1)C(=O)c1c(Cl)cccc1[Si](C)(C)C [Example 101, 2-Chloro-N-[[4-(1,1-dimethylethyl)phenyl]methyl]-N-methyl-6-(trimethylsilyl)-benzamide] | 10% | 21% | 62% | – | – | – |
| CCNC(=O)c1sncc1[Si](C)(C)C [Example 259, N-Ethyl-4-(trimethylsilyl)-5-isothiazolecarboxamide] | 19% | 11% | 80% | – | – | – |
| CCN(CC)C(=O)c1c([Si](C)(C)C)ccc([Si](C)(C)C)c1Cl [Example 86, N,N-Diethyl-2-chloro-3,6-bis(trimethylsilyl)benzamide] | < 0% | 24% | 72% | – | – | – |
| CCNC(=O)c1c([Si](C)(C)C)ccc(S(C)(=O)=O)c1Cl [Example 238, 2-Chloro-N-ethyl-3-(methylsulfonyl)-6-(trimethylsilyl)benzamide] | < 0% | < 0% | 72% | – | – | – |
| CCNC(=O)c1c(Cl)cccc1[Si](C)(C)C1CC2CCC1C2 (stereo not drawn) [Example 183, 2-(Bicyclo[2.2.1]Hept-2-yldimethylsilyl)-6-chloro-N-ethylbenzamide] | 24% | 35% | 56% | – | – | – |
| CN(CC=Cc1ccccc1)C(=O)c1c(Cl)cccc1[Si](C)(C)C [Example 105, 2-Chloro-N-methyl-N-(3-phenyl-2-propenyl)-6-(trimethylsilyl)benzamide] | 3% | 37% | 84% | – | – | – |
| CCNC(=O)c1cc(NC(=O)c2ccccc2)ccc1[Si](C)(C)C [Example 240, 5-(Benzoylamino)-N-ethyl-2-(trimethylsilyl)benzamide] | 26% | 22% | 65% | – | – | – |
| C#CCNC(=O)c1c(I)cccc1[Si](C)(C)C [Example 208, 2-Iodo-N-2-propynyl-6-(trimethylsilyl)benzamide] | < 0% | 83% | 97% | – | – | – |
| CCN(C(=O)c1cc(N(C)C)ccc1[Si](C)(C)C)C(OC)C(C)(C)C (stereo not drawn) [Example 222, 5-(Dimethylamino)-N-ethyl-N-(1-methoxy-2,2-dimethylpropyl)-2-(trimethylsilyl)benzamide] | < 0% | < 0% | 96% | – | – | – |
